Where two headings read alike, the source gives them in different places.
Legend:
[1] = system: mice with memory impairment induced by scopolamine; conditions: for latency time increase compared to control group 2 (scopolamine only): present experiment; for Learning latency time: learning trial; for Present Experiment latency time: 24 hours after learning
[2] = system: mice with memory impairment induced by scopolamine; assay: Morris water maze test, scopolamine-induced memory impairment; type: in vivo, ICR mice; conditions: control group 1, donepezil 5 mg/Kg, scopolamine 1 mg/Kg i.p.
Description: (§1) 6-week-old ICR mice (Orient Bio Inc., Korea), weighing about 26 to 28 g, were fed with water and food freely available for 5 days in an environment, where the temperature was about 23±2° C., the humidity was about 55±10%, and the light-dark cycle was 12 hours (Animal Laboratory at the College of Pharmacy in Kyung Hee university), and used in the experiments.
A Morris water maze test apparatus was prepared for the experiment. Four labels such as star, square, triangle, and circle were put at regular intervals on a circular pool of 90 cm in diameter and 45 cm in height, and a platform of 29 cm in height was positioned below the star. Water was filled up to 0.5 cm from the platform (water temperature: 21±1° C.) and became cloudy with pigment such that the platform was not visible from the surface of the water.
160 mg of the zizyphi spinosi semen extract of Example 1 was dissolved in 4 mL of 10% Tween 80 (Polyoxyethylene sorbitan monooleate: Sigma, U.S.A.) and administered to drug administration groups 1 and 2 at doses of 100 mg/Kg and 200 mg/Kg. Meanwhile, donepezil (Sigma-Aldrich Chemistry Co.) was administered to control group 1 at a dose of 5 mg/Kg, and 10% Tween 80 was administered to control groups 2 and 3 at a dose of 0.15 mL.
After 30 minutes, the time taken for the mice, put down in one section of the pool, in drug administration groups 1 and 2 and control groups 1 to 3 to reach the platform was measured for 60 seconds. After 30 minutes, the time taken for the mice, repositioned to the original position, to reach the platform was measured until 60 seconds. The above-described process was repeated 4 times, and the average values were obtained. The experiment was performed in the same manner as on the first day while administering the drugs for 4 days, except that the position where the mice were first put down was changed.

[3] = system: mice with memory impairment induced by scopolamine; assay: Y-maze test, scopolamine-induced memory impairment; type: in vivo, ICR mice; conditions: control group 1, donepezil 5 mg/Kg; scopolamine 1 mg/Kg i.p.
Description: as §1
A Y-maze was prepared for the experiment. The Y-maze had three arms, in which each arm was 42 cm in length, 3 cm in width, and 12 cm in height, the angle formed by three arms was 120 degrees, and the Y-maze was made of black polyvinyl resin.
160 mg of the zizyphi spinosi semen extract of Example 1 was dissolved in 4 mL of 10% Tween 80 (Polyoxyethylene sorbitan monooleate: Sigma, U.S.A.) and administered to drug administration groups 1 and 2 at doses of 100 mg/Kg and 200 mg/Kg. […]
After 30 minutes, the mice in drug administration groups 1 and 2 and control groups 1 to 3 were carefully placed on one of three arms of the Y-maze, divided into A, B, and C, respectively, and allowed to freely move, and then the arms where the mice entered were recorded. At this time, only the case where the mouse’ tail fully entered the arm was recorded as the arm where the experimental animal entered, and the case where the mouse entered the same arm was also recorded. […]

[4] = system: mice with memory impairment induced by scopolamine; assay: Passive avoidance test 2 (zizyphi spinosi semen extract), scopolamine-induced memory impairment; type: in vivo, ICR mice; conditions: control group 1, donepezil 5 mg/Kg, scopolamine 1 mg/Kg i.p.
Description: as §1
After 30 minutes, learning about the passive avoidance test apparatus was performed on the mice in drug administration groups 1 to 4 and control groups 1 to 3, respectively. Specifically, the mice were placed in the first space kept light, and after a seek time of about 20 seconds, the guillotine door was opened, and the latency time taken for the mice to move to the second space kept dark was measured.
After 24 hours since the learning was completed, the present experiment was performed on drug administration groups 1 to 4 and control groups 1 to 3, respectively. The latency tire taken for all four feet of the mouse to enter the dark space after the guillotine door was opened from the seek time of 10 seconds was measured up to 300 seconds. […]

[5] = control group 1, donepezil 5 mg/Kg, scopolamine 1 mg/Kg i.p.

COc1cc2oc(-c3ccc(O)cc3)cc(=O)c2c(O)c1[C@@H]1O[C@H](CO)[C@@H](O)[C@H](O)[C@H]1O[C@@H]1O[C@H](CO)[C@@H](O)[C@H](O)[C@H]1O [spinosin, 6-(2-O-beta-D-Glocopyranosyl-beta-D-glucopyranosyl)-5-hydroxy-2-(4-hydroxyphenyl)-7-methoxy-4H-1-benzopyran-4-one]
latency time increase compared to control group 2 (scopolamine only) ([1]; 2.5 mg/Kg): about 20 seconds | Learning latency time ([1]; 2.5 mg/Kg, scopolamine 1 mg/Kg i.p. 30 min later): 25.88 ± 13.72 s | Present Experiment latency time ([1]; 2.5 mg/Kg, scopolamine 1 mg/Kg i.p., measured up to 300 seconds): 59.13 ± 46.88 s | latency time increase compared to control group 2 (scopolamine only) ([1]; 5 mg/Kg): about 2.5 times | Learning latency time ([1]; 5 mg/Kg, scopolamine 1 mg/Kg i.p. 30 min later): 29.38 ± 18.17 s | Present Experiment latency time ([1]; 5 mg/Kg, scopolamine 1 mg/Kg i.p., measured up to 300 seconds): 107.1 ± 91.70 s | latency time increase compared to control group 2 (scopolamine only) ([1]; 10 mg/Kg): about 3 times | Learning latency time ([1]; 10 mg/Kg, scopolamine 1 mg/Kg i.p. 30 min later): 20.50 ± 9.196 s | Present Experiment latency time ([1]; 10 mg/Kg, scopolamine 1 mg/Kg i.p., measured up to 300 seconds): 131.3 ± 69.94 s | latency time increase compared to control group 2 (scopolamine only) ([1]; 20 mg/Kg): about 3.5 times | Learning latency time ([1]; 20 mg/Kg, scopolamine 1 mg/Kg i.p. 30 min later): 36.00 ± 16.45 s | Present Experiment latency time ([1]; 20 mg/Kg, scopolamine 1 mg/Kg i.p., measured up to 300 seconds): 146.0 ± 83.53 s | latency time compared to control group 2 (in words) ([1]; drug administration groups 1 to 4, 2.5 to 20 mg/Kg): significantly increased | memory and learning ability compared to control group 1 (donepezil) (in words) ([1]; drug administration groups 3 and 4, 10 and 20 mg/Kg): improved to an extent similar to that in control group 1

COc1cc2c(cc1OC)C(=O)C(CC1CCN(Cc3ccccc3)CC1)C2 (stereo not drawn) [donepezil]
Present Experiment latency time [1, 5]: 151.9 ± 37.24 s | Learning latency time [1, 5]: 25.13 ± 13.68 s | Time to reach the platform ([2]; 1st day): 59.34 ± 2.055 s | Time to reach the platform ([2]; 2nd day): 48.75 ± 14.98 s | Time to reach the platform ([2]; 3rd day): 42.80 ± 15.16 s | Time to reach the platform ([2]; 4th day): 34.35 ± 13.80 s | Alternation behavior (%) [3]: 65.71 ± 10.19% | Total entry (total number of arm entries) [3]: 34.75 ± 7.265 | Present Experiment latency time ([4]; 24 hours after learning): 140.5 ± 25.47 s | Learning latency time ([4]; learning trial): 17.25 ± 5.365 s

From US9956242B2, “Pharmaceutical composition for prevention or treatment of cognitive function disorders comprising spinosin” (MINISTRY OF FOOD AND DRUG SAFETY, priority 2011, dated 2018)
